Earlier results, collected in patent US12527803B2, “Testosterone dodecanoate compositions and methods” (priority 2023, dated 2026).

Key:
[1] = tested on: Enterhemorrhagic E. Coli (EHEC) biofilms; conditions: p<0.001 for lauric acid
[2] = tested on: normotensive and hypertensive rats
[3] = tested on: prostatic hyperplasia induced by testosterone; conditions: rats
[4] = tested on: Propionibacterium acnes, Staphylococcus aureus, Eschericia coli, Streptococci, Mycobacterium tuberculosis, Clostridium difficile and other bacteria
[5] = tested on: Candida albicans, Aspergillus niger, and Fusarium spp
[6] = tested on: Vesicular stomatitis virus, Herpes simplex virus, Visna virus, Respiratory syncytial virus, and Junin virus

SMILES	Repression of EHEC biofilms versus control [1]	Effect on BP and heart rate ([2]; normotensive and hypertensive rats)	Effect on HDL levels ([2]; rat, in vivo)	Effect on prostatic hyperplasia induced by testosterone [3]	Antibacterial benefit [4]	Antifungal benefit [5]	Antiviral benefit [6]
CCCCCCCCCCCC(=O)O [lauric acid]	repressed EHEC biofilms significantly differently than the control	reduce the BP and heart rate	increase HDL levels	prevent the prostatic hyperplasia induced by testosterone	antibacterial benefit	antifungal benefit	antiviral benefit
CCCCCCCCCCC(=O)O [undecanoic acid]	did not	–	–	–	–	–	–
